Here are results for four compounds from patent US10385038B2, “Pyridine substituted 2-aminopyridine protein kinase inhibitor crystal” (Chia Tai Tianqing Pharmaceutical Group Co., Ltd., priority 2015, dated 2019).

Read-outs that look alike come from different tables or passages of the source.

Data set [1] is described as follows: Pharmacokinetic test, intragastric administration to Beagle dogs, plasma LC-MS/MS. Format: in vivo. The note with it: for Cmax / AUC(0-t) / AUC(0-inf) / Tmax / bioavailability: both sexes, dog, plasma; for Cmax / AUC(0-t) / AUC(0-inf) / Tmax: po; for Cmax / AUC(0-t) / AUC(0-inf) / Tmax / t1/2z: suspension in 0.5% CMC-Na, citrate crystal 5.52 mg/kg, compound of Formula I 4 mg/kg (equimolar as base); for AUC(0-t): 0-36 h, trapezoidal; for AUC(0-inf): extrapolated Ct/λ; for Tmax: mean ± spread; for bioavailability: beagle, oral, crystal of citrate salt versus compound of Formula I. The source says:
In this study, LC-MS/MS was used to determine the plasma concentrations of drugs after the compound of Formula I and crystals of citrate salt thereof were intragastrically administered to Beagle dogs, and the effects of the crystals of citrate salt of the compound of Forumla I on the absorption behavior were observed.
The instrumentation system included the LC-10ADvp (Shimadzu, Japan) LC system and the TSQ Quantum Access triple quadrupole tandem mass spectrometer equipped with an electrospray ionization (ESI) source and Xcalibur 2.0.7 data processing system (Thermo Scientific, USA); the operating software was DAS2.1.1; other instruments were One hundred thousandth electronic balance (Mettler Toledo); Centrifugal rotary concentrator (LABCONCO, USA); High-speed refrigerated centrifuge (Model 5430-R, Eppendorf); Refrigerator (Model BCD-281E, Electrolux); Low temperature refrigerator (Model FORMA 700 SERIES, Thermo […]), etc.
Column: Thermo C18 LC column (size: 150 L×2.1 mm, 5 μm); column temperature: 40° C.; Mobile phase A: aqueous phase (containing 5 mM ammonium acetate and 0.1% formic acid); mobile phase B: methanol; gradient elution: 0.01 min, 20%; 0.5 min, 20%; 1.5 min, 80%; 4.5 min, 80%, 5 min, 20%, 6 min, stop (phase B). The flow rate was 0.3 mL/min. Benazeprilat was used as the internal standard for measurement.
The measurement was carried out by LC-MS/MS. The ion source was an ESI source and detection was performed in the positive ionization mode; the spray voltage was 3.8 kV; the heated capillary temperature was 350° C.; the pressure of the sheath gas (N2) was 35 Arb; the pressure of the auxiliary gas (N2) was 15 Arb; and voltages for collision induced dissociation (CID) were 25 eV and 25 eV (internal standard), respectively. The scanning mode was selective reaction monitoring (SRM), and the ion reactions for quantitative analysis were m/z 506.3-315.2 (the compound of Formula I) and m/z 397-351 (internal standard), respectively.
Six adult healthy beagle dogs, half male and half female, each weighing 9-11 kg, were randomly divided into two groups, and cross-administrated with the compound of Formula I and a crystal of citrate salt thereof.
After fasted for 12 h, the dogs were intragastrically administered with the crystal of citrate salt of the compound of Formula I and with the compound of Formula I (both were formulated with 0.5% CMC-Na as a suspension) at 5.52 mg/kg and 4 mg/kg (equimolar amounts based on the base form), respectively. A blank blood sample was taken before administration; and venous blood samples, about 1.0 ml each, were taken 0.5, 1, 2, 3, 4, 6, 8, 12, 14, 24, 36 hours after administration, placed in test tubes containing heparin, and centrifuged. The plasma fractions were isolated and stored at −80° C. After the washout period (7 days), the two groups of animals were each cross-administrated with the corresponding second drug, and the concentration of compound of Formula I in plasma samples was measured. The plasma concentration-time data for each test animal were input into a computer and the relevant pharmacokinetic parameters were calculated using the pharmacokinetic professional software DAS2.1.1, wherein Cmax and Tmax were measured values. AUC(0-t) and AUC(0-∞) are the area under the plasma concentration-time curve for the period of measurement and the total area under the plasma concentration-time curve, respectively. The AUC(0-t) was estimated by the trapezoidal method from the measured plasma concentrations, and the AUC(0-∞) was calculated from the AUC(0-t) plus the remaining area in the range t→∞, which can be calculated by the following equation: AUC(t-∞)=Ct/λ
In the above equation, Ct is the last plasma concentration measured, and λ is the elimination rate constant in the terminal portion of the plasma concentration.

A short description of data set [2]: Stability test (Chinese Pharmacopoeia 2010, Appendix XIX C), total impurities by HPLC. Format: physicochemical. Particulars: for Total impurities: citrate salt. The method, then:
Stability was examined for 10 days under the conditions of 40° C., 60° C., 75% relative humidity (25° C.), 92.5% relative humidity (25° C.), or light illumination (5000 lx±500 lx), respectively. Samples were taken on day 0 and day 10, and the total impurities thereof were assayed by HPLC.
Column: Waters XBridge C18 (5 μm, 4.6×150 mm)
Mobile phase A: 0.01 M aqueous ammonium formate, to which 0.1% formic acid was added, and triethylamine was also added to adjust the pH to 7.4
Mobile phase B: acetonitrile
Linear gradient elution, with the following procedure: […]
Detection wavelength: diode array detector (280 nm)
Column temperature: 40° C.
Solvent: acetonitrile-water (1:1)
Preparation of the test solution: the solution was taken and accurately weighed, dissolved in a solvent and diluted to a solution at 1 mg per 1 mL, as the test solution.

Data set [3] is described as follows: Hygroscopicity test (Chinese Pharmacopoeia 2005, Appendix XIX J). Format: physicochemical.
Where [4] appears, read: 10 days at 40° C., 60° C., 75% RH, 92.5% RH or light.

For the compound `COc1cc(N2CCNC[C@@H]2C)ncc1-c1cnc(N)c(O[C@H](C)c2c(Cl)ccc(F)c2Cl)c1` [Example 1, 5-((R)-1-(2,6-dichloro-3-fluorophenyl)ethoxy)-4′-methoxy-6′-((S)-2-methylpiperazin-1-yl)-3,3′-bipyridin-6-amine], in data set [1], the highest level (Cmax) was 50 ± 20.8 ng/mL, the AUC(0-t) was found to be 502 ± 176 ng·h/mL, the AUC(0-inf) is 517 ± 181 ng·h/mL and the Tmax is 3.17 ± 1.6 h. The t1/2z in data set [1] came out at 6.71 ± 2.55 h.
In the case of `COc1cc(N2CCNC[C@@H]2C)ncc1-c1cnc(N)c(O[C@H](C)c2c(Cl)ccc(F)c2Cl)c1.O=C(O)CC(O)(CC(=O)O)C(=O)O` [Example 2, 5-((R)-1-(2,6-dichloro-3-fluorophenyl)ethoxy)-4′-methoxy-6′-((S)-2-methylpiperazin-1-yl)-3,3′-bipyridin-6-amine citrate salt], in data set [1], the “Degree and rate of absorption compared to the compound of Formula I (in words)” value is “better degree and rate of absorption”. Also, the bioavailability turned out to be 114 ± 68.3% in data set [1] (from AUC(0-t), read-out: Relative bioavailability F1) and 113 ± 68.3% in data set [1] (from AUC(0-∞), read-out: Relative bioavailability F2). The Cmax in data set [1] is 63 ± 29.2 ng/mL. For the same compound, in data set [1], the AUC(0-t) worked out at 570 ± 343 ng·h/mL. The AUC(0-inf) in data set [1] is 586 ± 353 ng·h/mL. Moreover, the Tmax in data set [1] is 2.33 ± 1.03 h. In addition, in data set [1], the t1/2z is on record as 5.94 ± 1.59 h. For the same compound, the Total impurities in data set [2] (40° C., 10 days, listed as crystal form A of citrate salt of the compound of Formula I) was 0.77%; in data set [2] (60° C., 10 days, listed as crystal form A of citrate salt of the compound of Formula I), 0.89%; in data set [2] (Initial state, 0 day, listed as crystal form A of citrate salt of the compound of Formula I), 0.76%; in data set [2] (Light illumination (5000 lx±500 lx), 10 days, listed as crystal form A of citrate salt of the compound of Formula I) it was 0.78%; in data set [2] (Relative humidity 75%, 25° C., 10 days, listed as crystal form A of citrate salt of the compound of Formula I), 0.79%; in data set [2] (Relative humidity 92.5%, 25° C., 10 days, listed as crystal form A of citrate salt of the compound of Formula I), 0.77%. The “Stability (in words)” value in data set [2] (setting [4]) was “good stability”. Further, the “Stability compared between crystal forms (in words)” value in data set [2] (setting [4]) is given as “better than that of crystal form B”. Also, the “Hygroscopic weight gain compared to the compound of Formula I and the other salts thereof (in words)” value in data set [3] is “obviously lower”.
In the case of `COc1cc(N2CCNC[C@@H]2C)ncc1-c1cnc(N)c(O[C@H](C)c2c(Cl)ccc(F)c2Cl)c1.O=C(O)CC(O)(CC(=O)O)C(=O)O` [Example 8, 5-((R)-1-(2,6-dichloro-3-fluorophenyl)ethoxy)-4′-methoxy-6′-((S)-2-methylpiperazin-1-yl)-3,3′-bipyridin-6-amine citrate salt], the Total impurities in data set [2] (40° C., 10 days, listed as crystal form B of citrate salt of the compound of Formula I) came to 0.96%; in data set [2] (60° C., 10 days, listed as crystal form B of citrate salt of the compound of Formula I), 1.19%; in data set [2] (Initial state, 0 day, listed as crystal form B of citrate salt of the compound of Formula I), 0.89%; in data set [2] (Light illumination (5000 lx±500 lx), 10 days, listed as crystal form B of citrate salt of the compound of Formula I), 0.99%; in data set [2] (Relative humidity 75%, 25° C., 10 days, listed as crystal form B of citrate salt of the compound of Formula I) it was 0.94%; in data set [2] (Relative humidity 92.5%, 25° C., 10 days, listed as crystal form B of citrate salt of the compound of Formula I) it was 0.95%. The “Hygroscopic weight gain compared to the compound of Formula I and the other salts thereof (in words)” value in data set [3] is listed as “obviously lower”.
Consider `COc1cc(N2CCNC[C@@H]2C)ncc1-c1cnc(N)c(O[C@H](C)c2c(Cl)ccc(F)c2Cl)c1.O=C(O)CC(O)(CC(=O)O)C(=O)O` [Example 12, 5-((R)-1-(2,6-dichloro-3-fluorophenyl)ethoxy)-4′-methoxy-6′-((S)-2-methylpiperazin-1-yl)-3,3′-bipyridin-6-amine citrate salt], for which, in data set [3], the “Hygroscopic weight gain compared to the compound of Formula I and the other salts thereof (in words)” value is “obviously lower”.

For orientation: Cmax means the highest concentration seen after dosing. For orientation: AUC(0-t) means exposure summed from dosing to a finite time, without extrapolation to infinity. The term AUC(0-inf) denotes total exposure, with the tail of the curve extrapolated. One may read the Tmax as the time at which the peak concentration occurs.
